Measurements as given in patent publication US4544660A, “Pharmaceutically active tropanes” (Beecham Group p.l.c., priority 1978, dated 1985).
Like-named read-outs stand apart in the source and are kept apart here.

What was measured:
[1] = tested on: vomiting response; assay: Anti-emetic activity in the dog (apomorphine induced vomiting); type: in vivo; set-up: key to II Anti-Emetic Activity Dose, slight activity (footnote *): *: slight at 5 × 10^-4; settings: s.c.; for ED100: Canis lupus familiaris, 30 min before apomorphine HCl 0.1 mg/kg s.c., complete inhibition, read-out: II Anti-Emetic Activity Dose, Complete Inhibition
Description: II. Anti-emetic activity in the dog
Compounds were administered subcutaneously 30 minutes prior to administration of a standard dose of apomorphine HCl (0.1 mg/kg subcutaneously) and the vomiting response compared to that obtained when the same animals were dosed with apomorphine HCl and vehicle only.

[2] = tested on: Dopamine Receptor; assay: Inhibition of apomorphine induced climbing in the mouse; type: in vivo; settings: p.o., apomorphine 1 mg/kg s.c.
Description: (§1) I. Dopamine Receptor Blocking Activity in the Central Nervous System
(b) Inhibition of apomorphine induced climbing in the mouse
The test is based on that described by Protais, P., Constantin, J. and Schwartz J.C. (1976), Psychopharmacology, 50, 1-6.
Apomorphine 1 mg/kg s.c. induces mice to climb the wall of a wire cage (inverted food hopper--11×7.5×18 cm high). Mice acclimatised in their home cages in groups of 5 are placed under the hoppers immediately after the injection of apomorphine 1 mg/kg s.c. At 10,20 and 30 minutes after injection climbing behaviour is scored. The mice are observed for 30 seconds and scored according to the position they spend the majority of time in, score 0--four paws on floor of cage; score 1--fore paws only on walls; score 2--all paws on wall of cage. The scores at all 3 times and for each mouse are summed and mice drug treated orally compared to mice receiving apomorphine only. A saline only treated group is also included and any score, generally <5% of maximum taken into account.

[3] = tested on: intragastric pressure; assay: Increase in intragastric pressure in the rat; type: in vivo; set-up: III(a) Increase in Intragastric Pressure Dose (minimum dose for activity): unit not given here; settings: s.c., 40 minute period after administration
Description: (a) Increase in intragastric pressure in the rat
Intragastric pressure changes were recorded from previously starved conscious but restrained rats using a saline filled catheter inserted into the lumen of the stomach via a permanent gastric fistula. The catheter was connected to a physiological pressure transducer and pressure changes recorded on a hot wire pen recorder. In each animal a pre-dose period of 40 minutes was allowed to obtain a measure of spontaneous activity. An index of activity was obtained by measuring the average height of pressure waves during 10 minute periods. Values for 4 such periods were obtained during assessment of spontaneous activity and for the 40 minute period after the subcutaneous administration of the compounds. Students `t` test was applied to the difference in average values obtained for spontaneous and post-compound activity.

[4] = tested on: gastric emptying; assay: Increase in gastric emptying: reversal of apomorphine induced delay in gastric emptying in the rat; type: in vivo; settings: for III(b) Increase in Gastric Emptying: 10 mg/kg s.c., apomorphine HCl 5 mg/kg s.c. induced delay
Description: (b) Increase in gastric emptying: reversal of apomorphine induced delay in gastric emptying in the rat
Rats equipped with chromic gastric fistulae were used and it was through this that 5 ml of a test meal (5 ml phosphate buffer at pH 9) was administered and recovered. The % recovery of the standard meal after remaining in the stomach for 10 minutes was taken as an index of gastric emptying. Delay in gastric emptying was induced by the administration of apomorphine HCl (5 mg/kg subcutaneously) which was given 15 minutes prior to the subcutaneous administration of the compound. The % recoveries of the test meal were determined at 15-25 and 45-55 minutes post-dosing with the compound and compared with vehicle only dosed animals set up simultaneously. Six animals were used for each group.

[5] = tested on: Dopamine Receptor; assay: Inhibition of apomorphine induced stereotype behaviour in the rat; type: in vivo; set-up: key to I(a) Dose Inhibiting Stereotype Behaviour (slight inhibition, footnote *): *: slight at 0.05; key to I(a) Dose Inhibiting Stereotype Behaviour (slight inhibition, footnote +): +: slight at 1; settings: s.c.; for I(a) Dose Inhibiting Stereotype Behaviour (dose for complete inhibition): apomorphine induced, IA(x) = inactive at dose in brackets
From the text: as §1
(a) Inhibition of apomorphine induced stereotype behaviour in the rat
(method of Ernst (1967), Psychopharmacologia (Berl.) 10 316-323).

[6] = biological target: T1, dopamine receptor (Rattus norvegicus, UniProt P61169); assay: In vitro displacement of radiolabelled spiroperidol from dopamine receptor membranes; type: binding, rat (Male Hooded Lister); settings: for inhibition at 10 µM: 0.25 h, 10^-5 M compound, read-out: I(c) Spiroperidol Displacement % at 10^-5 M
T1 construct: the caudate nucleus is quickly dissected out; from tissue; host or cells: caudate nucleus of male Hooded Lister rats, homogenate
T1 sequence (P61169 whole entry): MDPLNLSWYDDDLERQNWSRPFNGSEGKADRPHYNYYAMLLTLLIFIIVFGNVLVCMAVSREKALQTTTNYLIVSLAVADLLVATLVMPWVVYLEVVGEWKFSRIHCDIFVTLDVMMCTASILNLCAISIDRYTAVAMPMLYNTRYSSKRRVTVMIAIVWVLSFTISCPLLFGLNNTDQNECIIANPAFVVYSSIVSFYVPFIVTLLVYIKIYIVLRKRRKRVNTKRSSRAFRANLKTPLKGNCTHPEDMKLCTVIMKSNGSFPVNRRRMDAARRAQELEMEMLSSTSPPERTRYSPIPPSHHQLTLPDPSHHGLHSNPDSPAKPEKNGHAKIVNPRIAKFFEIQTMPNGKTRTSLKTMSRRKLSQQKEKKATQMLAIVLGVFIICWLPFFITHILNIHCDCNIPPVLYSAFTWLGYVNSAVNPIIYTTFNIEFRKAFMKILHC
Description: (c) In vitro displacement of radiolabelled spiroperidol from dopamine receptor membranes
Therefore a compound which displaces this ligand from dopamine receptor membranes may have neuroleptic properties.
Male Hooded Lister rats (200-300 g) are decapitated and the caudate nucleus is quickly dissected out. This is homogenised in ice cold Tris buffer (pH 7.7 at 25° C.) at a concentration of 10 mg/ml wet weight of tissue. The test compound (at 10^-5 M) or spiroperidol (standard curve from 10^-5 to 10^-9 M) is added to the assay tubes followed by 0.5 nM [^3 H]-spiroperidol. This is mixed with 500 μl of the membrane preparation and the assay tubes are incubated for 15 minutes at 37° C. After this period 4 ml ice cold Tris buffer is added to each tube and the solutions are filtered through per-soaked glass fibre filters. The filter is washed twice with 4 ml of the buffer and then transferred to a scintillation vial for counting. Single concentration results are given as a percentage of [^3 H]-spiroperidol displaced.

[7] = Anti-obesity activity (single compound test); type: in vivo
[8] = Anti-arrhythmic activity (single compound test)
[9] = biological target: T1, dopamine receptor; settings: literature; cited from earlier work
[10] = 0.5 nM [3H]-spiroperidol, rat caudate nucleus membranes
[11] = 0.5 nM [3H]-spiroperidol, rat caudate nucleus membranes, read-out: I(c) Spiroperidol Displacement ED50 (concentration for 50% displacement)

Row | SMILES | ED100 [1] [mg/kg] | I(b) Anti-Climbing Activity Dose, Complete Inhibition [2] | III(a) Increase in Intragastric Pressure Dose (minimum dose for activity) [3] | III(b) Increase in Gastric Emptying [4] | I(a) Dose Inhibiting Stereotype Behaviour (dose for complete inhibition) [5] | inhibition at 10 µM [6, 10] [%] | I(b) Anti-Climbing Activity Dose, ED50 [2] [mg/kg] | further results
1 | CCCCN1[C@@H]2CC[C@H]1C[C@@H](NC(=O)c1cc(Cl)c(N)cc1OC)C2 [Compound 27, 4-amino-5-chloro-2-methoxy-N-(3'α-[8'-n-butyl-8'-azabicyclo[3.2.1]-octyl])benzamide] | 1 | IA (inactive at 10 mg/Kg p.o.) | IA(10) | IA(10) | IA(10) | 66 | – | –
2 | COc1cc(N)c(Cl)cc1C(=O)N[C@@H]1C[C@H]2CC[C@@H](C1)N2Cc1ccccc1 [Compound 5, 4-amino-5-chloro-2-methoxy-N-(3'β-[8'-benzyl]8-azabicyclo[3.2.1]octyl)benzamide] | 0.001 | – | – | – | 0.05 mg/kg | – | 0.03 | minimal effective dose ([4]; sc, read-out: dose that significantly increases gastric emptying): 0.05 mg/kg; anti-obesity activity [7]: anti-obesity activity
3 | COc1cc(N)c(Cl)cc1C(=O)N[C@@H]1C[C@H]2CC[C@@H](C1)N2Cc1ccc(C)cc1 [Compound 13, 4amino-5chloro-2-methoxy-N-(3β-[8'[4"methylbenzyl]-8'-azabicyclo[3.2.1]octyl])-benzamide] | 0.1 | – | – | – | – | 54 | 0.12 | –
4 | CCCCN1[C@@H]2CC[C@H]1C[C@H](NC(=O)c1cc(Cl)c(N)cc1OC)C2 [Compound 26, 4-amino-5-chloro-2-methoxy-N-(3'β-[8'-n-butyl-8'-azabicyclo[3.2.1]-octyl])benzamide] | 0.4 | – | – | 1% | – | – | 2.9 | I(a) Dose Inhibiting Stereotype Behaviour (slight inhibition, footnote +) ([5]; slight at 1): +; IC50 [6, 11]: 400 nM
5 | COc1cc(N)c(Cl)cc1C(=O)N[C@@H]1C[C@H]2CC[C@@H](C1)N2CCc1ccccc1 [Compound 18, 4amino-5-chloro-2-methoxy-N-(3β-[8'-β-phenethyl]-['-azabicyclo[3.2.1]octyl])-benzamide] | 0.25 | IA (inactive at 10 mg/Kg p.o.) | IA(5) | – | IA(50) | – | – | IC50 [6, 11]: 600 nM
6 | COc1cc(N)c(Cl)cc1C(=O)N[C@H]1C[C@H]2CC[C@@H](C1)N2C [Compound 20, 4-amino-5-chloro-2-methoxy-N-(3'α-[8'-methyl-8'-azabicyclo[3.2.1]-octyl])-benzamide] | – | – | – | – | – | – | – | anti-arrhythmic activity [8]: anti-arrhythmic activity
7 | O=C(CCCN1CCC2(CC1)C(=O)NCN2c1ccccc1)c1ccc(F)cc1 [[3H]-spiroperidol] | – | – | – | – | – | – | – | binding to dopamine receptors in the brain [9]: high affinity
8 | COc1cc(N)c(Cl)cc1C(=O)N[C@@H]1C[C@H]2CCC[C@@H](C1)N2Cc1ccccc1 [Compound 12, 4-amino-5-chloro-2-methoxy-N-(3'β-[9'-benzyl-9'-azabicyclo-[3.3.1]-nonyl])-benzamide] | 0.1 | 2 mg/kg | IA(1) | – | 0.5 mg/kg | 53 | – | –
9 | COc1cc(N)c(Cl)cc1C(=O)N[C@@H]1C[C@H]2CC[C@@H](C1)N2C [Compound 19, 4-Amino-5-chloro-2-methoxy-N-(3'β-[8'-methy-8'-azabicyclo[3.2.1]-octyl])-benzamide] | 0.6 | IA (inactive at 10 mg/Kg p.o.) | – | 25% | IA(25) | 64 | – | minimal effective dose ([3]; sc, 40 min, read-out: III(a) Increase in Intragastric Pressure Dose (minimum dose for activity)): 1 to 10 mg/kg
10 | COc1cc(N)c(Cl)cc1C(=O)N[C@@H]1C[C@H]2CC[C@@H](C1)N2CC1CCCCC1 [Compound 30, 4-amino-5-chloro-2-methoxy-N-(3'β-[8'-cyclohexylmethyl-8'-azabicyclo-[3.2.1]-octyl])-benzamide] | – | 5 mg/kg | IA(1) | 0.05% | – | – | – | II Anti-Emetic Activity Dose, slight activity (footnote *) ([1]; slight at 5 × 10^-4): *; I(a) Dose Inhibiting Stereotype Behaviour (slight inhibition, footnote *) ([5]; slight at 0.05): *; IC50 [6]: 20 nM
